What all share (assay type): binding
In assay [1] the target is T1, HSP72 (Homo sapiens, UniProt P0DMV8).
T1 construct: made in house
As to the kind of experiment: Fluorescence polarisation probe KD determination with full-length HSP72. The method, then:
(§1) To determine the binding affinity of bisaryl FP-probe 11 for HSP72, increasing concentrations of the protein were titrated against a fixed concentration (10 nM) of the FP-probe. […] We speculated that this decrease in apparent KD was due to the slow hydrolysis of the ATP-probe to ADP-ATTO-488 + Pi. Although HSP72 has low intrinsic ATPase activity,[8] the high enzyme concentration could catalyse hydrolysis over the time-frame of the assay, with the initial KD values reflective of the known modest affinity of ATP for HSP70, whilst the final KD value was consistent with the higher affinity ADP ligand.[14] […]
(§2) TRIS Tris(hydroxymethyl)aminomethane
(§3) General Information: Unless otherwise stated the aqueous assay buffer contained 50 mM TRIS base pH 7.4, 150 mM NaCl, 6 mM MgCl2, 1 mM DTT, 0.1% (wt/wt) CHAPS. The assay was conducted using 384 Plus F ProxiPlates (PerkinElmer) with a final assay volume of 10 μL. Plates were centrifuged at 1000 rpm for 1 minute prior to incubation and read using an 2103 Envision Multilable Plate Reader. Excitation and emission wavelengths used for green probes were 480 nm and 535 nm, respectively.
Fluorescence polarisation was measured in units of millipolarization (mP). All experiments were performed in triplicate, unless otherwise stated. Data were plotted and analysed using GraphPad Prism 6, graphical data represents the mean ± standard error of the mean for a single representative experiment. ATP-derived fluorescent probes (1.0 mM in aqueous) were purchased from Jena Bioscience. Human BAG-1M (10.9 μM in 20 mM TRIS base pH 7.4, 100 mM NaCl, 1 mM DTT, 1% (v/v) glycerol) was purchased from Enzo Life Sciences. […]
Fluorescence polarisation values for the tracer ± protein were plotted using GraphPad prism 6.
Fluorescent probe KD determination: To each well, 5 μL of probe molecule (20 nM in assay buffer) and increasing concentrations of HSP70 protein (5 μL, two-fold dilution series) were added. Fluorescence polarisation values for tracer control wells (10 nM probe in assay buffer only) were subtracted from each data point prior to data analysis. KD determination was performed using non-linear regression analysis (GraphPad Prism 6, one site–specific binding model). […]
BAG-1 titration: To each well, ATP-ATTO488 and HSP70 at two times their final concentration (5 µL in assay buffer) was added and the plate incubated in the dark for 16 hours. Increasing concentrations of BAG1 protein (5 μL, two-fold dilution series in 20 […]
(1 picture or pasted object on this page, not shown here)
On the technique in general: Polarisation of emitted light reports the rotation of a fluorescent probe.

The target of assay [2] is T2, TR-HSP72 (aa 3-382) (Homo sapiens, UniProt P0DMV8).
T2 construct: Truncated HSP72-NBD (residues 3 to 382); made in house
T2 sequence (P0DMV8 3-382): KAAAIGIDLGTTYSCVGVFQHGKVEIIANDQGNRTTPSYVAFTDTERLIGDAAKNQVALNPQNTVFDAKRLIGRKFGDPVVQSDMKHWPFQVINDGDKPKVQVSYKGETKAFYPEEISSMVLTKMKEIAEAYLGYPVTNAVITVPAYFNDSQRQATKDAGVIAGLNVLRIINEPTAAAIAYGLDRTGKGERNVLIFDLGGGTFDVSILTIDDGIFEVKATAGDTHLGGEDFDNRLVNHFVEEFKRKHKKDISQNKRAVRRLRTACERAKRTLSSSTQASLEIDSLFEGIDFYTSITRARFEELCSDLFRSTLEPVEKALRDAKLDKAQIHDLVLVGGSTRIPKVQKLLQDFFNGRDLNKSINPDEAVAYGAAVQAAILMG
Briefly: Fluorescence polarisation probe KD determination with truncated HSP72. As for the experimental part: as §1, §2, §3
Fluorescence polarisation was measured in units of millipolarization (mP). […] Data were plotted and analysed using GraphPad Prism 6, graphical data represents the mean ± standard error of the mean for a single representative experiment. […]

Assay [3] addresses T3, BAG1 (Homo sapiens, UniProt Q99933).
T3 construct: purchased Enzo Life Sciences
T3 sequence (Q99933 1-274 isoform Q99933-3): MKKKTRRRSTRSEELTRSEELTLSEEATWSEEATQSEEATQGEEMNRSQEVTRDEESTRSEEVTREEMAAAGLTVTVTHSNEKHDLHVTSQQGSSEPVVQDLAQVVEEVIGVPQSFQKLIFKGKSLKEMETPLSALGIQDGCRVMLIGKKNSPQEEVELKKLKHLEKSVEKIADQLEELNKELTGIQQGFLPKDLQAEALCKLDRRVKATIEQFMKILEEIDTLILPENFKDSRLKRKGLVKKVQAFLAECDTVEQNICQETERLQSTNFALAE
Briefly: FP of probes with BAG1 in the absence of HSP72. The settings on record: 10 nM probe, 1 µM BAG1. The method, then: To assess what effect the secondary HSP72/BAG1 complex had on the apparent affinity of the non-nucleotide bisaryl-ATTO-488 FP-probe 11, we carried out a similar BAG1 study. […] To confirm that the binding of BAG1 to HSP72 was not mutually exclusive, we screened the nucleotides ADP and ATP in a competition assay with bisaryl-ATTO-488 11 and HSP72 at a 50% bound fraction, with and without a saturating concentration of BAG1 (700 nM) (Fig. S7, ESI ^†).
Fig. S4. Competitive displacement curve for bisarryl-ATTO-448 and HSP72 with compound 2. IC50 determination was performed using non-linear least squares curve fitting (GraphPad Prism 6, log(inhibitor) vs. response—variable slope (four parameters)), all data points were tested in triplicate and are represented as the arithmetic mean ± SEM. pKD=-log KD (M). pKD values are quoted as the geometric mean±SEM of n independent repeats.
Fig. S5. Bisaryl-ATTO-488 and ATP-ATTO-488 binding to truncated HSP72 and HSC70. Representative binding isotherms for bisaryl-ATTO-488 (blue) and ATP-ATTO-488 (red) binding to TR-HSP72 (aa 3-382) (•) and TR-HSC70 (aa 4-381) (x). KD determination was performed using non-linear regression analysis (one site–specific binding model), all data points were tested in triplicate and are represented as the arithmetic mean ± SEM. pKD=-log KD (M). pKD values are quoted as the geometric mean±SEM of n independent repeats.
Fig. S6. […]

For orientation: pKD means the negative decadic logarithm of the KD, by convention in mol/L. What is called Kd is the equilibrium constant for the complex coming apart.

Where two headings read alike, the source gives them in different places.

T1 sequence (P0DMV8 whole entry): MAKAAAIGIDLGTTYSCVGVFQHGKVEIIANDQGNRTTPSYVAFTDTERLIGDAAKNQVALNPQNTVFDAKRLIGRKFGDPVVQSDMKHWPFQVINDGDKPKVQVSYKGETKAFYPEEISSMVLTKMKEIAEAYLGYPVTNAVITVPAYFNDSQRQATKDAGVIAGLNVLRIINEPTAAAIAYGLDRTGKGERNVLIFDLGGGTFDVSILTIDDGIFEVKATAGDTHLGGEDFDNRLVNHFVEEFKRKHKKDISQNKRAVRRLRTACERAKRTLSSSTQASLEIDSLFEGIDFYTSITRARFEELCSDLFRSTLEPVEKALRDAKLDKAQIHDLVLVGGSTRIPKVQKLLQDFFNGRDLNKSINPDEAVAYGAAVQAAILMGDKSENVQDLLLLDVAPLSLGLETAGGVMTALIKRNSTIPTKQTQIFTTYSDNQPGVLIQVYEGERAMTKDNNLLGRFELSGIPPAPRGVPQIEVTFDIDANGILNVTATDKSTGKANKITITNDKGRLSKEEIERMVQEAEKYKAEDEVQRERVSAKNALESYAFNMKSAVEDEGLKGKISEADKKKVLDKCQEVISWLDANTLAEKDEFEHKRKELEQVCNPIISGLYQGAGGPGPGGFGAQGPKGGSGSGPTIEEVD

On to `CN(CCCC(=O)NCCCCCCNc1ncnc2c1nc(NCc1ccc3ncccc3c1)n2[C@@H]1O[C@H](COCc2ccc(C(F)(F)F)cc2)[C@@H](O)[C@H]1O)C(=O)c1ccccc1-c1c2ccc(=N)c(S(=O)(=O)O)c-2oc2c(S(=O)(=O)O)c(N)ccc12` [compound 11], for which the “time-dependency of affinity for HSP72” value in assay [1] is recorded as “no apparent time-dependency”. The negative-log KD (pKD) in assay [1] (10 nM probe, 0.1% (w/v) CHAPS, n = 4) is given as 6.72 ± 0.04; in assay [1] (0.01% (v/v) Triton X-100, n = 3) it was 6.83; in assay [2], 7.32. Further, the Kd in assay [1] (10 nM probe, 0.1% (w/v) CHAPS, read-out: KD) was 194 nM; in assay [1] (0.01% (v/v) Triton X-100, read-out: KD), 150 nM; in assay [1] (without BAG1, Fig. S7 isotherm, read-out: KD - BAG1), 183 nM; in assay [2] it was 50 nM. Further, the “interaction with BAG1 in the absence of HSP72” value in assay [3] is listed as “No interaction”; in assay [3] (listed as bisaryl-ATTO-488), “does not interact”.
